{
  "source": "paper PMC5736435",
  "about": "(European journal of medicinal chemistry, 2017)",
  "key": {"S. aureus NRS119 [1]": {"tested_on": "S. aureus NRS119", "conditions": "cited from earlier work"}, "[2]": {"conditions": "in vivo; cited from earlier work"}, "MRSA (2658 RCMB)": {"tested_on": "MRSA (2658 RCMB)", "test": "MIC by broth microdilution against MRSA clinical isolate 2658 RCMB", "assay_type": "cell-based", "conditions": "Staphylococcus aureus"}, "S. aureus NRS107": {"tested_on": "S. aureus NRS107", "test": "MIC by broth microdilution against mupirocin-resistant S. aureus NRS107", "assay_type": "cell-based, Staphylococcus aureus", "conditions": "S. aureus NRS107, high-level resistance to mupirocin"}, "S. aureus NRS119 [3]": {"tested_on": "S. aureus NRS119", "test": "MIC by broth microdilution against linezolid-resistant S. aureus NRS119", "assay_type": "cell-based, Staphylococcus aureus", "conditions": "S. aureus NRS119, resistance to linezolid"}, "S. aureus NRS384": {"tested_on": "S. aureus NRS384", "assay_type": "cell-based, Staphylococcus aureus", "conditions": "S. aureus NRS384, resistance to macrolides and tetracyclines"}, "MRSA USA300 [4]": {"tested_on": "MRSA USA300", "test": "Time-kill assay against MRSA", "assay_type": "cell-based, Staphylococcus aureus"}, "[5]": {"tested_on": "human colorectal cells (HRT-18)", "test": "In vitro cytotoxicity", "assay_type": "cell-based", "conditions": "for concentration not toxic to HRT-18 cells: MTS assay, two hours incubation; for safety margin: human, 2 h"}, "BHK-21": {"tested_on": "BHK-21", "test": "In vitro cytotoxicity", "assay_type": "cell-based, hamster", "conditions": "MTT assay"}, "MRSA USA300 [6]": {"tested_on": "MRSA USA300", "assay_type": "cell-based, Staphylococcus aureus", "conditions": "MRSA USA300, fourteen passages over two weeks"}, "[7]": {"test": "In vivo pharmacokinetics in rats", "conditions": "rat"}, "PBS solubility screen": {"test": "PBS solubility screen", "assay_type": "physicochemical"}, "[8]": {"conditions": "phosphate-buffered saline; cited from earlier work"}},
  "data": [
    {"molecule": "CC(=O)NC[C@H]1CN(c2ccc(N3CCOCC3)c(F)c2)C(=O)O1", "note": "[linezolid]", "values": [
      {"measurement": "MIC", "setting": "S. aureus NRS119 [1]", "result": "> 128", "unit": "µg/mL"}
    ]},
    {"molecule": "CCC[C@H](NC(=O)[C@@H]1[C@H]2CCC[C@H]2CN1C(=O)[C@@H](NC(=O)[C@@H](NC(=O)c1cnccn1)C1CCCCC1)C(C)(C)C)C(=O)C(=O)NC1CC1", "note": "[telaprevir]", "values": [
      {"measurement": "oral bioavailability", "setting": "[2]", "result": "≤ 3", "unit": "%"}
    ]},
    {"molecule": "Cc1nc(-c2ccc(-c3ccccc3)cc2)sc1-c1nnc(NC(=N)N2CCN(C)CC2)o1", "note": "[Compound 27, N-{5-(2-([1,1′-Biphenyl]-4-yl)-4-methylthiazol-5-yl)-1,3,4-oxadiazol-2-yl}-4-methylpiperazine-1-carboximid-amide]", "values": [
      {"measurement": "MIC", "setting": "MRSA (2658 RCMB)", "result": 1.1, "unit": "µg/mL"},
      {"measurement": "growth inhibition", "setting": "S. aureus NRS107", "result": "inhibited growth"},
      {"measurement": "growth inhibition", "setting": "S. aureus NRS119 [3]", "result": "inhibited growth"},
      {"measurement": "growth inhibition", "setting": "S. aureus NRS384", "result": "inhibited growth"},
      {"measurement": "MRSA CFU after 24 h", "setting": "MRSA USA300 [4]; after 24 h, 4 × MIC, 37 °C", "result": "completely eradicated"},
      {"measurement": "mode of action, bacteriostatic or bactericidal", "setting": "MRSA USA300 [4]; at the concentration tested (4 × MIC)", "result": "bactericidal"},
      {"measurement": "concentration not toxic to HRT-18 cells", "setting": "[5]", "result": 512, "unit": "µg/mL"},
      {"measurement": "safety margin", "setting": "[5]", "result": "more than 400 ×MIC"},
      {"measurement": "tolerability against non-cancerous cell line BHK-21", "setting": "BHK-21", "result": "highly tolerable"},
      {"measurement": "shift in MIC over fourteen passages", "setting": "MRSA USA300 [6]", "result": "No increase in MIC"},
      {"measurement": "Cmax relative to MIC against MRSA (2658 RCMB)", "setting": "[7]; in vivo, po, 25 mg/kg", "result": "nearly six-fold"}
    ]},
    {"molecule": "Cc1nc(-c2ccc(-c3ccccc3)cc2)sc1-c1nnc(NC(=N)N)o1", "note": "[Compound 22, 1-{5-(2-([1,1′-Biphenyl]-4-yl)-4-methylthiazol-5-yl)-1,3,4-oxadiazol-2-yl}guanidine]", "values": [
      {"measurement": "improvement in aqueous solubility relative to pyrimidine analogue 1c", "setting": "PBS solubility screen", "result": 43, "unit": "times"}
    ]},
    {"molecule": "CCCCc1ccc(-c2nc(C)c(/C(C)=N/NC(=N)N)s2)cc1", "note": "[Compound 1a, reference compound]", "values": [
      {"measurement": "safety margin", "setting": "[5]", "result": 32, "unit": "×MIC"},
      {"measurement": "%F (oral bioavailability)", "setting": "[7]; 25 mg/kg oral dose", "result": "not bioavailable orally"}
    ]},
    {"molecule": "Cc1nc(-c2ccc(-c3ccccc3)cc2)sc1-c1nnc(NC(=N)N2CCOCC2)o1", "note": "[Compound 26, N-{5-(2-([1,1′-Biphenyl]-4-yl)-4-methylthiazol-5-yl)-1,3,4-oxadiazol-2-yl}morpholine-4-carboximidamide]", "values": [
      {"measurement": "concentration not toxic to HRT-18 cells", "setting": "[5]", "result": 256, "unit": "µg/mL"},
      {"measurement": "tolerability against non-cancerous cell line BHK-21", "setting": "BHK-21", "result": "highly tolerable"},
      {"measurement": "shift in MIC over fourteen passages", "setting": "MRSA USA300 [6]", "result": "No increase in MIC"}
    ]},
    {"molecule": "C/C(=N\\NC(=N)N)c1sc(-c2ccc(-c3ccccc3)cc2)nc1C", "note": "[Compound 1b, reference compound]", "values": [
      {"measurement": "solubility at 2 h", "setting": "PBS solubility screen; Solubility limit", "result": 2.2, "unit": "µM"},
      {"measurement": "times less soluble than lead compound 1a", "setting": "[8]", "result": 24, "unit": "times"}
    ]}
  ]
}
